Measurements as given in patent US20250115600A1, “COVALENT MODIFIERS OF AKT1 AND USES THEREOF” (Terremoto Biosciences, Inc., priority 2022, published 2025).
pIC50: −log10 of the molar value.

Experiments:
Assay in all cases: Live cell target engagement (NanoBRET) in HEK293 cells
Format in all cases: cell-based
[1] = target: AKT2 (Homo sapiens (Human), UniProt P31751); settings: HEK293, 2 hours at 37° C.
[2] = target: AKT1 E17K (Homo sapiens (Human), UniProt P31749, E17K); settings: for pIC50: HEK293, 2 hours at 37° C.
[3] = target: AKT1 WT (Homo sapiens (Human), UniProt P31749); settings: HEK293, 2 hours at 37° C.
Chain of AKT1 WT (P31749 whole entry): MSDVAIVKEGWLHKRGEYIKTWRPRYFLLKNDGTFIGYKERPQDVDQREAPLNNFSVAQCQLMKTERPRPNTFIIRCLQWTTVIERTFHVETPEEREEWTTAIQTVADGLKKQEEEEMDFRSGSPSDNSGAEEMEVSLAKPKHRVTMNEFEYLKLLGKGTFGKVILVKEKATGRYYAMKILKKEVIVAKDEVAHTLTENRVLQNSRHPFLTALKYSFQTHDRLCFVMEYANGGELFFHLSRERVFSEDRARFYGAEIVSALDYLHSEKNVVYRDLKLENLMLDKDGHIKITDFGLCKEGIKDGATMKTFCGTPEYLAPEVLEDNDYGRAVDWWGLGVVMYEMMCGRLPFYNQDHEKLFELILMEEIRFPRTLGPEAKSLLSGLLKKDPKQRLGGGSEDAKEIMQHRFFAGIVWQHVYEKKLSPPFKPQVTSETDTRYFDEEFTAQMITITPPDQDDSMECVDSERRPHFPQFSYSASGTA

Chain of AKT1 E17K (P31749 whole entry E17K): as the sequence (P31749 whole entry) above, with E17K counted along it
Chain of AKT2 (P31751 whole entry): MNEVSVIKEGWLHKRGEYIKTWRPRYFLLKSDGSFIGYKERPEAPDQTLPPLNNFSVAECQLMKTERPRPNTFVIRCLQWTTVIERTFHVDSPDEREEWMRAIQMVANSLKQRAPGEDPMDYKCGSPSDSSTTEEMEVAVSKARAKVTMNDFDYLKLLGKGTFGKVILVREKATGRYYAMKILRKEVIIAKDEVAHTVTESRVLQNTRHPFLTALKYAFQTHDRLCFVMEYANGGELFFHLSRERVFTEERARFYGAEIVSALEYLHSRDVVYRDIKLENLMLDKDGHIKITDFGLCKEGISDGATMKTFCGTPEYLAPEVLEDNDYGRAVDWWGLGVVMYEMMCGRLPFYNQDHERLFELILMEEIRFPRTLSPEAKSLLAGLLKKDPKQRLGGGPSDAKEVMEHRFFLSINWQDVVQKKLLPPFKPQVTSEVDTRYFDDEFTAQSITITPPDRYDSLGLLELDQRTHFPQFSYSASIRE

Nc1ncccc1-c1nc2ccc(-c3cccnc3)nc2n1-c1ccc(CNC(=O)c2ccc(O)c(C=O)c2)cc1 [Compound 71, N-(4-(2-(2-aminopyridin-3-yl)-5-(pyridin-3-yl)-3H-imidazo[4,5-b]pyridin-3-yl)benzyl)-3-formyl-4-hydroxybenzamide]
pIC50 [1]: 6.30 to 7.00 | AKT1 E17K IC50: Selectivity vs AKT1 WT [2]: 5.8 | AKT1 E17K IC50: Selectivity vs AKT2 [2]: 37 | pIC50 [2]: > 7.00 | pIC50 [3]: > 7.00

COc1c(CCNCc2ccc(-n3c(-c4cccnc4N)nc4ccc(-c5ccccc5)nc43)cc2)ccc(C=O)c1O [Compound 76, 4-{2-[({4-[2-(2-aminopyridin-3-yl)-5-phenylimidazo[4,5-b]pyridin-3-yl]phenyl}methyl)amino]ethyl}-2-hydroxy-3-methoxybenzaldehyde]
pIC50 [1]: 6.30 to 7.00 | AKT1 E17K IC50: Selectivity vs AKT1 WT [2]: 1.6 | AKT1 E17K IC50: Selectivity vs AKT2 [2]: 4.7 | pIC50 [2]: 6.30 to 7.00 | pIC50 [3]: 6.30 to 7.00

Nc1ncccc1-c1nc2ccc(-c3ccccc3)nc2n1-c1ccc(CNC(=O)Cc2cnc(C=O)c(O)c2)cc1 [Compound 77, N-(4-(2-(2-aminopyridin-3-yl)-5-phenyl-3H-imidazo[4,5-b]pyridin-3-yl)benzyl)-2-(6-formyl-5-hydroxypyridin-3-yl)acetamide]
pIC50 [1]: < 6.30 | AKT1 E17K IC50: Selectivity vs AKT1 WT [2]: 4.3 | AKT1 E17K IC50: Selectivity vs AKT2 [2]: 39 | pIC50 [2]: > 7.00 | pIC50 [3]: 6.30 to 7.00

Nc1ncccc1-c1nc2cccnc2n1-c1ccc(CNC(=O)C(F)(F)c2ccc(C=O)c(O)c2)cc1 [Compound 78, N-(4-(2-(2-aminopyridin-3-yl)-3H-imidazo[4,5-b]pyridin-3-yl)benzyl)-2,2-difluoro-2-(4-formyl-3-hydroxyphenyl)acetamide]
pIC50 [1]: < 6.30 | AKT1 E17K IC50: Selectivity vs AKT1 WT [2]: 2.2 | AKT1 E17K IC50: Selectivity vs AKT2 [2]: 43 | pIC50 [2]: > 7.00 | pIC50 [3]: 6.30 to 7.00

Nc1ncccc1-c1nc2ccc(-c3cccnc3)nc2n1-c1ccc(CNC(=O)Cc2ccc(C=O)c(O)c2F)cc1 [Compound 79, N-({4-[2-(2-aminopyridin-3-yl)-5-(pyridin-3-yl)imidazo[4,5-b]pyridin-3-yl]phenyl}methyl)-2-(2-fluoro-4-formyl-3-hydroxyphenyl)acetamide]
pIC50 [1]: < 6.30 | AKT1 E17K IC50: Selectivity vs AKT1 WT [2]: 4.4 | AKT1 E17K IC50: Selectivity vs AKT2 [2]: 88 | pIC50 [2]: > 7.00 | pIC50 [3]: > 7.00

Nc1ncccc1-c1nc2cccnc2n1-c1ccc(CNCCc2ccc(C=O)c(C(F)F)c2)cc1 [Compound 80, 4-{2-[({4-[2-(2-aminopyridin-3-yl)imidazo[4,5-b]pyridin-3-yl]phenyl}methyl)amino]ethyl}-2-(difluoromethyl)benzaldehyde]
pIC50 [1]: < 6.30 | AKT1 E17K IC50: Selectivity vs AKT1 WT [2]: 0.47 | AKT1 E17K IC50: Selectivity vs AKT2 [2]: 2.5 | pIC50 [2]: 6.30 to 7.00 | pIC50 [3]: 6.30 to 7.00

Nc1ncccc1-c1nc2ccc(-c3ccccc3)nc2n1-c1ccc(CNc2cc(-c3ccc(O)c(C=O)c3)ccn2)cc1 [Compound 81, 5-(2-((4-(2-(2-aminopyridin-3-yl)-5-phenyl-3H-imidazo[4,5-b]pyridin-3-yl)benzyl)amino)pyridin-4-yl)-2-hydroxybenzaldehyde]
pIC50 [1]: 6.30 to 7.00 | AKT1 E17K IC50: Selectivity vs AKT1 WT [2]: 0.51 | AKT1 E17K IC50: Selectivity vs AKT2 [2]: 1.7 | pIC50 [2]: 6.30 to 7.00 | pIC50 [3]: 6.30 to 7.00

Nc1ncccc1-c1nc2cccnc2n1-c1ccc(CNC(=O)C2(c3ccc(C=O)c(O)c3)CC2)cc1 [Compound 82, N-(4-(2-(2-aminopyridin-3-yl)-3H-imidazo[4,5-b]pyridin-3-yl)benzyl)-1-(4-formyl-3-hydroxyphenyl)cyclopropane-1-carboxamide]
pIC50 [1]: < 6.30 | AKT1 E17K IC50: Selectivity vs AKT1 WT [2]: 29 | AKT1 E17K IC50: Selectivity vs AKT2 [2]: >400 | pIC50 [2]: > 7.00 | pIC50 [3]: < 6.30

Nc1ncccc1-c1nc2cccnc2n1-c1ccc(CNC(=O)c2ccc(O)c(C=O)c2)cc1 [Compound 83, N-({4-[2-(2-aminopyridin-3-yl)imidazo[4,5-b]pyridin-3-yl]phenyl}methyl)-3-formyl-4-hydroxybenzamide]
pIC50 [1]: < 6.30 | AKT1 E17K IC50: Selectivity vs AKT1 WT [2]: 10 | AKT1 E17K IC50: Selectivity vs AKT2 [2]: 99 | pIC50 [2]: > 7.00 | pIC50 [3]: 6.30 to 7.00
